Results published in US6706663B2, “Herbicidal 3-heterocyclic substituted benzisothiazole and benzisoxazole compounds” (Wyeth, priority 2000, dated 2004).

Tests used:
[1] = tested on: ABUTH (Abutilon theophrasti); assay: Postemergence herbicidal evaluation; format: in vivo, Medic.
Summary of the method: (§1)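 Seedlings grown about two weeks in flats, sprayed, then kept under standard greenhouse care. Rated visually 4–5 weeks after treatment on a 0–9 scale (stand, vigour, malformation, size, chlorosis, overall appearance) relative to untreated control; repeat tests averaged.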

SETVI (Setaria viridis) = assay: Preemergence herbicidal evaluation; format: in vivo, (L.) Beau; conditions: preemergence, rated 4-5 weeks after treatment
Summary of the method: (§2)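 Visual 0–9 rating versus control (stand, vigor, malformation, size, chlorosis, overall appearance), scored four to five weeks post-treatment. Preemergence spray of aqueous acetone solution onto freshly seeded soil cups; plants grown under conventional greenhouse care.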

[2] = tested on: ECHCG (Echinochloa crus-galli); assay: Preemergence herbicidal evaluation; format: in vivo, (L.) Beau; conditions: preemergence, rated 4-5 weeks after treatment
Summary of the method: as §2

[3] = tested on: ABUTH (Abutilon theophrasti); assay: Preemergence herbicidal evaluation; format: in vivo, Medic.; conditions: preemergence, rated 4-5 weeks after treatment
[4] = tested on: GLXMAW (Soybean, Williams); assay: Preemergence herbicidal evaluation; format: in vivo, Glycine max, (L.) Merr. cv Williams; conditions: preemergence, rated 4-5 weeks after treatment
[5] = tested on: CHEAL (Chenopodium album); assay: Postemergence herbicidal evaluation; format: in vivo, L.
Summary of the method: as §1

[6] = tested on: AMBEL (Ambrosia artemisifolia); assay: Postemergence herbicidal evaluation; format: in vivo, L.
Summary of the method: as §1

[7] = tested on: CASOB (Cassia obtusifolia); assay: Postemergence herbicidal evaluation; format: in vivo, L.
Summary of the method: as §1

[8] = tested on: MOOVA (Monochoria vaginalis); assay: Flooded paddy, preemergence weed control; format: in vivo, Presl.; conditions: rated 3-4 weeks after treatment, 0-9 rating scale
Summary of the method: (§3)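 Under paddy conditions, seeds or vegetative propagules go into the top 0.5 cm of silt loam; the soil is then flooded to 1.5–3 cm and kept so. Treated pots stay in a greenhouse; response is rated 0-9 visually versus control.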

[9] = tested on: TRZAWR (Wheat, Winter, cv Riband); assay: Preemergence herbicidal evaluation; format: in vivo, Triticum aestivum; conditions: preemergence, rated 4-5 weeks after treatment
Summary of the method: as §2

[10] = tested on: IPOHE (Ipomoea hederacea); assay: Postemergence herbicidal evaluation; format: in vivo, (L.) Jacq.
Summary of the method: as §1

[11] = tested on: IPOHE (Ipomoea hederacea); assay: Preemergence herbicidal evaluation; format: in vivo, (L.) Jacq.; conditions: preemergence, rated 4-5 weeks after treatment
ORYSAT (Rice, Tebonnet) [12] = assay: Postemergence herbicidal evaluation; format: in vivo, Oryza sativa, (L.) Tebonnet
Summary of the method: as §1

[13] = tested on: CHEAL (Chenopodium album); assay: Preemergence herbicidal evaluation; format: in vivo, L.; conditions: preemergence, rated 4-5 weeks after treatment
Summary of the method: as §2

[14] = tested on: AMBEL (Ambrosia artemisifolia); assay: Preemergence herbicidal evaluation; format: in vivo, L.; conditions: preemergence, rated 4-5 weeks after treatment
Summary of the method: as §2

[15] = tested on: CASOB (Cassia obtusifolia); assay: Preemergence herbicidal evaluation; format: in vivo, L.; conditions: preemergence, rated 4-5 weeks after treatment
Summary of the method: as §2

[16] = tested on: GLXMAW (Soybean, Williams); assay: Postemergence herbicidal evaluation; format: in vivo, Glycine max, (L.) Merr. cv Williams
Summary of the method: as §1

CYPIR (Cyperus iria) = assay: Flooded paddy, preemergence weed control; format: in vivo; conditions: rated 3-4 weeks after treatment, 0-9 rating scale
Summary of the method: as §3

ORYSAT (Rice, Tebonnet) [17] = assay: Flooded paddy, post-transplant rice tolerance; format: in vivo, Oryza sativa, (L.) Tebonnet; conditions: flooded paddy, post-transplant rice, rated 3-4 weeks after treatment, 0-9 rating scale
Summary of the method: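 Steps: transplant two ten-day-old seedlings into silt loam; flood to 1.5-3 cm above soil; apply herbicide post-transplant; maintain water on greenhouse benches; rate stand, vigor, malformation, size and chlorosis on a 0-9 visual scale versus control.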

ZEAMX (Corn, Field) = assay: Preemergence herbicidal evaluation; format: in vivo, Zea mays, L.; conditions: preemergence, rated 4-5 weeks after treatment

COc1ccsc1-c1nsc2ccc(-n3c(=O)cc(C(F)(F)F)n(C)c3=O)cc12 [Compound 10, 3-[3-(3-methoxy-2-thienyl)-1,2-benzisothiazol-5-yl]-1-methyl-6-(trifluoromethyl)uracil]
9.0: Postemergence herbicidal rating, ABUTH ([1]; rate 0.1250 kg/ha) | SETVI preemergence herbicidal rating (SETVI (Setaria viridis); Rate 0.1250 kg/ha) | SETVI preemergence herbicidal rating (SETVI (Setaria viridis); Rate 0.2500 kg/ha) | ECHCG preemergence herbicidal rating ([2]; Rate 0.2500 kg/ha) | ABUTH preemergence herbicidal rating ([3]; Rate 0.1250 kg/ha) | ABUTH preemergence herbicidal rating ([3]; Rate 0.2500 kg/ha) | Postemergence herbicidal rating, AMBEL ([6]; rate 0.1250 kg/ha) | herbicidal rating, MOOVA ([8]; rate 0.0320 kg/ha) | herbicidal rating, MOOVA ([8]; rate 0.1250 kg/ha) | CHEAL preemergence herbicidal rating ([13]; Rate 0.1250 kg/ha) | CHEAL preemergence herbicidal rating ([13]; Rate 0.2500 kg/ha) | herbicidal rating, CYPIR (CYPIR (Cyperus iria); rate 0.1250 kg/ha)
4.8: Postemergence herbicidal rating, GLXMAW ([16]; rate 0.0320 kg/ha)
8.0: Postemergence herbicidal rating, ABUTH ([1]; rate 0.0320 kg/ha) | Postemergence herbicidal rating, ABUTH ([1]; rate 0.0620 kg/ha) | CHEAL preemergence herbicidal rating ([13]; Rate 0.0620 kg/ha)
5.0: ECHCG preemergence herbicidal rating ([2]; Rate 0.1250 kg/ha) | Postemergence herbicidal rating, GLXMAW ([16]; rate 0.0620 kg/ha)
4.0: Postemergence herbicidal rating, CHEAL ([5]; rate 0.1250 kg/ha) | AMBEL preemergence herbicidal rating ([14]; Rate 0.0620 kg/ha) | herbicidal rating, CYPIR (CYPIR (Cyperus iria); rate 0.0320 kg/ha) | herbicidal rating, ORYSAT (rice tolerance) (ORYSAT (Rice, Tebonnet) [17]; rate 0.1250 kg/ha) | ZEAMX preemergence herbicidal rating (ZEAMX (Corn, Field); Rate 0.0620 kg/ha)
7.0: ABUTH preemergence herbicidal rating ([3]; Rate 0.0620 kg/ha) | TRZAWR preemergence herbicidal rating ([9]; Rate 0.2500 kg/ha) | Postemergence herbicidal rating, IPOHE ([10]; rate 0.1250 kg/ha) | AMBEL preemergence herbicidal rating ([14]; Rate 0.2500 kg/ha) | ZEAMX preemergence herbicidal rating (ZEAMX (Corn, Field); Rate 0.2500 kg/ha)
7.5: SETVI preemergence herbicidal rating (SETVI (Setaria viridis); Rate 0.0620 kg/ha)
0.5: ECHCG preemergence herbicidal rating ([2]; Rate 0.0620 kg/ha) | GLXMAW preemergence herbicidal rating ([4]; Rate 0.0620 kg/ha) | IPOHE preemergence herbicidal rating ([11]; Rate 0.0620 kg/ha) | IPOHE preemergence herbicidal rating ([11]; Rate 0.1250 kg/ha) | CASOB preemergence herbicidal rating ([15]; Rate 0.0620 kg/ha)
3.0: Postemergence herbicidal rating, AMBEL ([6]; rate 0.0620 kg/ha) | Postemergence herbicidal rating, ORYSAT (ORYSAT (Rice, Tebonnet) [12]; rate 0.1250 kg/ha)
2.5: GLXMAW preemergence herbicidal rating ([4]; Rate 0.2500 kg/ha)
2.0: Postemergence herbicidal rating, AMBEL ([6]; rate 0.0320 kg/ha) | Postemergence herbicidal rating, IPOHE ([10]; rate 0.0320 kg/ha) | Postemergence herbicidal rating, IPOHE ([10]; rate 0.0620 kg/ha) | IPOHE preemergence herbicidal rating ([11]; Rate 0.2500 kg/ha)
1.3: Postemergence herbicidal rating, ORYSAT (ORYSAT (Rice, Tebonnet) [12]; rate 0.0320 kg/ha)
1.8: Postemergence herbicidal rating, ORYSAT (ORYSAT (Rice, Tebonnet) [12]; rate 0.0620 kg/ha)
6.0: AMBEL preemergence herbicidal rating ([14]; Rate 0.1250 kg/ha) | Postemergence herbicidal rating, GLXMAW ([16]; rate 0.1250 kg/ha)
6.5: ZEAMX preemergence herbicidal rating (ZEAMX (Corn, Field); Rate 0.1250 kg/ha)
0.0: Postemergence herbicidal rating, CASOB ([7]; rate 0.0320 kg/ha) | Postemergence herbicidal rating, CASOB ([7]; rate 0.0620 kg/ha) | herbicidal rating, ORYSAT (rice tolerance) (ORYSAT (Rice, Tebonnet) [17]; rate 0.0320 kg/ha)
1.0: GLXMAW preemergence herbicidal rating ([4]; Rate 0.1250 kg/ha) | Postemergence herbicidal rating, CHEAL ([5]; rate 0.0320 kg/ha) | Postemergence herbicidal rating, CHEAL ([5]; rate 0.0620 kg/ha) | Postemergence herbicidal rating, CASOB ([7]; rate 0.1250 kg/ha) | CASOB preemergence herbicidal rating ([15]; Rate 0.1250 kg/ha) | CASOB preemergence herbicidal rating ([15]; Rate 0.2500 kg/ha)
4.5: TRZAWR preemergence herbicidal rating ([9]; Rate 0.1250 kg/ha)
1.5: TRZAWR preemergence herbicidal rating ([9]; Rate 0.0620 kg/ha)
